# Assay results taken from patent US20050004044A1, “Use of orsaponin [3beta, 16beta, 17 alpha-trihydroxycholost-5-en-22-one 16-0-(2-0-4-methoxybenzoyl-beta-D-xylopyranosyl)-(1->3)-(2-0-acetyl-alpha-L-arabinopyranoside)] or OSW-1 and its derivatives for cancer therapeutics” (priority 2003, published 2005).
# Values joined by “and” are separate entries in the source; they are usually repeats but may differ in a detail not shown here. Equal values may be shown once. Read-outs that look alike come from different tables or passages of the source.
# How the values were obtained:
# primary CLL cells = assay: cells; assay type: cell-based
# Description: FIG. 7. Effect of Orsaponin (OSW-1) on cell survival in primary human leukemia cells isolated from patients with chronic lymphocytic leukemia (CLL). Freshly isolated primary CLL cells were incubated with the indicated concentrations of OSW-1 for 72 hours in vitro. Cell viability was measured by MTT assay. […] Data from representative experiments with CLL cells from three different patients are shown. A total of 23 CLL blood samples were tested for sensitivity to OSW-1 in the same fashion.
# (§1) 1. MTT Assays. For these assays either cancer cell lines were used. Alternatively, mononuclear cells from peripheral blood samples of CLL patients or normal donors were separated by Ficoll Hipaque fractionation and resuspended in DMEM complete medium. Malignant cells from various human cell lines (usually at 5×10^4 cells/ml) or mononuclear cells from peripheral blood of leukemia patients and healthy donors (1×10^6 cells/ml) were incubated in either αMEM or RPMI 1640 with or without various concentrations of OSW-1 in the range of 0-10 nM. Each experimental condition was done in triplicate. After the indicated number of days (usually 3 days or 72 hours) of exposure to OSW-1, cell survival was assessed by the addition of the MTT dye to the wells. The MTT dye changes its color depending on the presence of live cells in the well. Survival of cells under orsaponin treatment was evaluated as a percentage of control cell growth. Alternatively, one can also use the dye trypan-blue which penetrates dead cells thereby allowing one to count live cells under the microscope and estimating percentage survival.
# Reduction of Cell Viability in CLL-Patient-Derived Cells. […] Freshly isolated primary CLL cells were incubated with the 0-100 nM OSW-1 for 72 hours in vitro and cell viability was measured by the MTT assay.
# Cytotoxic activity of 17-deoxyorsaponin was also assessed in a number of patient samples. Primary human leukemia cells isolated from 11 patients with chronic lymphocytic leukemia (CLL) were analyzed for cytotoxic activity of 17-deoxyorsaponin. […]
# C6F cells = assay: Mitochondrial transmembrane potential (rhodamine-123), C6F; assay type: cell-based, human; conditions: 0.5 nM
# Description: FIG. 10. Effect of Orsaponin (OSW-1) on Mitochondrial transmembrane potential HL-60 cells. The parental HL-60 line and its mutant with mitochondrial respiration defect, clone C6F, were incubated with 0.5 nM OSW-1 for the indicated times. Change in mitochondrial transmembrane potential was measured by cytometry analysis, using rhodamine-123 as a potential-sensitive fluorescent dye.
# 3. Analysis of the Mitochondrial Transmembrane Potential. To evaluate the role of mitochondrial respiration in the cytotoxicity of OSW-1, changes in the potential of mitochondrial membrane were analyzed. Following the treatment of cells with OSW-1 for different time periods, cells were incubated with rhodamine-123 which is a potential-sensitive dye. Cytometric analysis was used to record changes in mitochondrial potential. […]
# The effect of OSW-1 on mitochondrial transmembrane potential in HL-60 cells and C6F cells was also analyzed by incubating the cells with 0.5 nM OSW-1 for the 4, 16 and 24 hours. Change in mitochondrial transmembrane potential was measured by flow cytometry analysis, using rhodamine-123 as a potential-sensitive fluorescent dye and are depicted in FIG. 10.
# [1] = 5-day intravenous toxicity study in mice; assay type: in vivo, ICR mice; conditions: for Early Deaths: 15 dosed; for NOAEL at 5 days: ICR
# Description: To assess the toxicity of orsaponin of the present invention, a 5-day intravenous study with Orsaponin in mice was conducted. […] Five mice from each group were scheduled to be sacrificed 3, 14, and 42 days after the last dose was administered.
# Tissues (liver with gall bladder, kidneys, heart with aorta, lungs, spleen, skeletal muscle, brain, pituitary gland, eyes, pancreas, stomach, duodenum, jejunum, ileum, cecum, colon, mesenteric lymph node, salivary gland, mandibular lymph node, thymus, adrenal glands, larynx/pharynx/tongue, thyroid gland, parathyroid, trachea, esophagus, skin, mammary gland (females only), prostate, seminal vesicles, urinary bladder, testes, epididymides, ovary, uterus, cervix, femur/knee joint, sternum, bone marrow, and gross lesions) were processed for microscopic evaluation.
# Individual animal organ weight was also measured. Calculation of percent of control using the relative weight of the individual organs per 100 grams of the terminal body weight (TBW) is included below in Tables 8 and 9. A change of greater than 20% difference was considered toxicologically important, and/or a clear dose response relationship.
# [2] = system: malignant glioma U87-MG cells; assay: MTT cell growth inhibition, U87-MG glioma; assay type: cell-based, human
# Description: as §1
# To test the therapeutic selectivity of Orsaponin and 17-deoxyorsaponin, their effect on human brain tumor cells (U87 malignant glioma) and normal human astrocytes were compared. The normal human astrocytes were previously immortalized by transfection with hTER to allow a long-term culture in vitro. The antiproliferative effect of Orsaponin in human malignant glioma cells (U87-MG) and normal human astrocytes was examined. Cells were incubated with various concentrations of Orsaponin for 72 h. Cell growth inhibition was measured by MTT assay (FIG. 21).
# [3] = system: human promyelocytic leukemia HL-60 cells; conditions: Mimaki et al., 1997; read-out: IC50, cytostatic activity against HL-60; cited from earlier work
# [4] = system: normal human pulmonary cells; conditions: Mimaki et al., 1997; read-out: IC50, toxicity to normal human pulmonary cells; cited from earlier work
# [5] = male mice, early deaths day 4, individual animals, listed as Orsaponin
structure (smiles),measurement,setting,value
"COc1ccc(C(=O)OC2C(OC3C(O)COC(O[C@H]4C[C@H]5[C@@H]6CC=C7C[C@@H](O)CC[C@]7(C)[C@H]6CC[C@]5(C)[C@@]4(O)[C@H](C)C(=O)CCC(C)C)C3OC(C)=O)OCC(O)C2O)cc1 (stereo partly drawn) [OSW-1, 3β, 16β, 17 α-trihydroxycholost-5-en-22-one 16-O-(2-O-4-methoxybenzoyl-β-D-xylopyranosyl)-(1->3)-(2-O-acetyl-α-L-arabinopyranoside)]",IC50,"primary CLL cells; Homo sapiens, CLL cell, 72 h, primary CLL cells, 72 hours, MTT, mean of 23 patients, read-out: IC50, cell viability",0.15 ± 0.26 nM
same,Selectivity Index,primary CLL cells; IC50 ratio of malignant/normal cells (CLL vs normal lymphocytes),23
same,change in mitochondrial transmembrane potential,C6F cells,did not show significant loss of mitochondrial transmembrane potential
same,Early Deaths,"[1]; Females, 10 μg/kg/day",0
same,Early Deaths,"[1]; Females, 20 μg/kg/day",0
same,Early Deaths,"[1]; Females, 30 μg/kg/day",0
same,Early Deaths,"[1]; Females, 40 μg/kg/day",0
same,Spleen Relative Weight,"[1]; Females, 14-Day, 20 μg/kg/day",109% of Control
same,Liver Relative Weight,"[1]; Females, 14-Day, 40 μg/kg/day",105% of Control
same,Kidney Relative Weight,"[1]; Females, 42-Day, 20 μg/kg/day",116% of Control
same,Kidney Relative Weight,"[1]; Females, 42-Day, 40 μg/kg/day",105% of Control
same,Early Deaths,"[1]; Males, 10 μg/kg/day",0
same,Early Deaths,"[1]; Males, 20 μg/kg/day",7
same,Early Deaths,"[1]; Males, 40 μg/kg/day",15
same,Kidney Relative Weight,"[1]; Males, 3-Day, 10 μg/kg/day",103% of Control
same,Kidney Relative Weight,"[1]; Males, 3-Day, 20 μg/kg/day",116% of Control
same,TBW,"[1]; Males, 14-Day, 10 μg/kg/day",107% of Control
same,mortality or morbidity,"[1]; female mice, 10, 20 or 40 μg/kg/day i.v.",no mortality or morbidity was observed
same,NOAEL at 5 days,"[1]; female, mouse, in vivo, females, read-out: no-observed-adverse-effect level (NOAEL)",0.04 mg/kg/day
same,no-observed-effect level (NOEL),[1]; females,40 µg/kg/day
same,NOEL,[1]; male mice,No NOEL
same,mortality and morbidity,"[1]; male mice, 20 and 40 μg/kg/day, after the fourth injection",mortality and morbidity was observed
same,"Hemolysis Sl, Md, Mk","[1]; male mice, early deaths day 4, individual animals (IDs 30xx, 40xx), 30 and 40 μg/kg/day groups, listed as Orsaponin",Md (6×) and Mk and Sl
same,ALK PHOS,[1]; [5],1896 IU/L and 1746 IU/L and 2290 IU/L and 3302 IU/L and >4500 IU/L and >1500 IU/L (2×) and 2001 IU/L and >2842 IU/L and 3339 IU/L and 4992 IU/L and 4326 IU/L
same,ALT,[1]; [5],1058 IU/L and 486 IU/L and >8800 IU/L (2×) and >4400 IU/L (2×) and 2060 IU/L and >6600 IU/L (2×) and 5642 IU/L and 4950 IU/L and 5596 IU/L
same,AST,[1]; [5],1794 IU/L and 1167 IU/L and >8800 IU/L (3×) and 3306 IU/L and >6600 IU/L (2×) and 4341 IU/L and >4400 IU/L and 5106 IU/L and 5864 IU/L
same,Alb,[1]; [5],4.2 gm/dl and 3 gm/dl and 3.4 gm/dl and 2.4 gm/dl (2×) and 3.8 gm/dl (2×) and 3.3 gm/dl and 3.9 gm/dl and 2.8 gm/dl and 2.7 gm/dl
same,CHLORIDE,[1]; [5],103 mmol/L and 110 mmol/L (3×) and 116 mmol/L and 105 mmol/L and 109 mmol/L and 107 mmol/L
same,Glob,[1]; [5],2.3 gm/dl and 1.8 gm/dl (2×) and 6.6 gm/dl and 1.4 gm/dl (2×) and 1.6 gm/dl and 1.5 gm/dl and 2.1 gm/dl and 1.2 gm/dl and 1 gm/dl
same,T. PROTEIN,[1]; [5],6.5 gm/dl and 4.8 gm/dl (2×) and 10 gm/dl and 3.8 gm/dl and 5.4 gm/dl and 5.6 gm/dl and 6 gm/dl (2×) and 4 gm/dl and 4.1 gm/dl and 3.4 gm/dl
same,NOAEL at 5 days,"[1]; male, mouse, in vivo, males, 5 daily doses, based on pathology, read-out: NOAEL",0.01 mg/kg/day
same,compound-related findings,"[1]; mouse, in vivo",No Orsaponin-related findings were observed
same,"interpretation of AST, ALT and total bilirubin","[1]; mouse, in vivo",severe liver disease
same,reversibility of hepatocellular lesion,"[1]; mouse, in vivo",completely reversible
same,IC50,"[2]; Homo sapiens, U-87 MG, U87-MG, 72 h, MTT",< 0.1 nM
same,sensitivity of glioma cells compared with normal astrocytes,[2]; U87-MG vs normal human astrocytes,much more sensitive
same,IC50,[3],0.1 to 0.3 nM
same,IC50,[4],1500 nM
